Data taken from patent US20240116985A1, “STAPLED PEPTIDES AND METHODS THEREOF” (priority 2020, published 2024).
Converted amounts (≈) assume the structure as drawn. Read-outs that look alike come from different tables or passages of the source.

Legend:
[1] = target: T1, full-length beta-Catenin (Uniprot ID P35222) (Homo sapiens, UniProt P35222); test: Fluorescence polarization IC50 (beta-catenin / 5FAM-TCF4 10-53 competition); assay type: binding
T1 construct: 10 nM full-length beta-Catenin (Uniprot ID P35222)
T1 sequence (P35222 1-781): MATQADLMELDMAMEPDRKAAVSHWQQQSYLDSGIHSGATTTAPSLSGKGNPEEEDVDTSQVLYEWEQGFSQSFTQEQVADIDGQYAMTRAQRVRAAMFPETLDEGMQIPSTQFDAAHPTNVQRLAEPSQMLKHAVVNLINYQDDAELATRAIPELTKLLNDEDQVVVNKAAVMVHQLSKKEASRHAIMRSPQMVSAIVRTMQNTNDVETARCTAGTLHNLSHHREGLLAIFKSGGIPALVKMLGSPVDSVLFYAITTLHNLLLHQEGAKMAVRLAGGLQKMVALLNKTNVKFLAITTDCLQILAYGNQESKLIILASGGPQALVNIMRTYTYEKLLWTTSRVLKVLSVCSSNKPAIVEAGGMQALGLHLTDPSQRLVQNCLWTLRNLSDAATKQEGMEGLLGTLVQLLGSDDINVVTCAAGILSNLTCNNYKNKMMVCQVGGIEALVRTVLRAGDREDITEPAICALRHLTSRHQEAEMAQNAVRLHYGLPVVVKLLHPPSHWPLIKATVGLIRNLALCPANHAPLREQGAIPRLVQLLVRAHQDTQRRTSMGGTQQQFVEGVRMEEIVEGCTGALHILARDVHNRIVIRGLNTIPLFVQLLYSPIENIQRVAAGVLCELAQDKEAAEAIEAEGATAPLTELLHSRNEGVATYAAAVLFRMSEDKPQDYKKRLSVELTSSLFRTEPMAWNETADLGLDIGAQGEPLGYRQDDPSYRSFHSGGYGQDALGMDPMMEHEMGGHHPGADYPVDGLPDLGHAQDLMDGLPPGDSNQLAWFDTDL

CHI Log D procedure = assay type: physicochemical; settings: for CHI Log D: pH 7.4; for chromatographic logD: pH 7.4, CHI Log D
Solubility in PBS = assay type: physicochemical
Summary of the method: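 PBS sample ultracentrifuged; supernatant run on HPLC vs. 50 μM peptide in DMSO standard. Solubility = (PBS peak area / DMSO peak area) × 50 uM.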

[2] = fluorescence polarization, beta-catenin, read-out: FP EC50
[3] = fluorescence polarization, read-out: beta-Catenin FP IC50

IC50 [1, 2] [nM] | IC50 ([1]; read-out: beta-Catenin FP IC50) [nM] | CHI Log D (CHI Log D procedure) | Solubility (Solubility in PBS) [µM] | IC50 [1, 3] [nM] | IC50 ([1]; read-out: FP EC50) [nM] | chromatographic logD (CHI Log D procedure) | Solubility (Solubility in PBS; Solubility (uM)) [µM] | IC50 ([1]; Table E2-1, read-out: beta-Catenin FP IC50) [nM] | SMILES
301 | 431 | 1.87 | 47 (≈ 90.5 µg/mL) |  |  |  |  |  | CC(=O)N1CCC[C@]12CC=CCCCC1(CCCC=CCCCOC(=O)N3CC[C@@](C(=O)N[C@@H](Cc4ccsc4)C(=O)N[C@@H](Cc4csc5ccccc45)C(=O)N[C@@H](CO)C(N)=O)(C3)NC(=O)[C@H](CO)NC(=O)[C@H](Cc3ccccc3)NC(=O)[C@H](C)NC(=O)[C@H](C)NC(=O)[C@H](Cc3cccc(C(=O)O)c3)NC(=O)[C@H](CC(=O)O)NC1=O)NC(=O)[C@H](CC(C)(C)C)NC(=O)[C@H](CC(=O)O)NC2=O (stereo partly drawn) [I-985, Ac-PL3-Asp-Npg-B5-Asp-3COOHF-Ala-Ala-Phe-Ser-PyrS2-3Thi-BztA-Ser-NH2]
 |  | 2.07 | 39 (≈ 75.7 µg/mL) | 108 | 108 |  |  |  | CC[C@H](C)[C@@H]1NC(=O)[C@H](CC(=O)O)NC(=O)[C@]2(CC=CCCCC3(CCCC=CCCCCCC[C@@](C)(C(=O)N[C@@H](Cc4ccccc4)C(=O)N[C@@H](Cc4csc5ccccc45)C(=O)N[C@@H](CCC(N)=O)C(N)=O)NC(=O)[C@H](CCC(N)=O)NC(=O)[C@H](Cc4ccccc4)NC(=O)[C@H](C)NC(=O)[C@H](CCC(N)=O)NC(=O)[C@H](CCC(=O)O)NC(=O)[C@H](CC(=O)O)NC3=O)NC1=O)CCCN2C(C)=O (stereo partly drawn) [I-653, Ac-PL3-Asp-Ile-B5-Asp-Glu-Gln-Ala-Phe-Gln-S8-Phe-BztA-Gln-NH2]
 | 55 |  |  |  |  | 2.8 | 34 (≈ 67.6 µg/mL) |  | CC(=O)N1CCC[C@]12CC=CCCCC1(CCCC=CCCCCCC[C@@](C)(C(=O)N[C@@H](Cc3ccccc3Cl)C(=O)N[C@@H](Cc3csc4ccccc34)C(=O)N[C@@H](CCC(N)=O)C(N)=O)NC(=O)[C@H](CO)NC(=O)[C@H](Cc3ccccc3)NC(=O)[C@H](C)NC(=O)[C@H](C)NC(=O)[C@H](CN(CC(=O)O)CC(F)(F)F)NC(=O)[C@H](CC(=O)O)NC1=O)NC(=O)[C@H](CC(C)(C)C)NC(=O)[C@H](CC(=O)O)NC2=O (stereo partly drawn) [I-995, Ac-PL3-Asp-Npg-B5-Asp-TfeGA-Ala-Ala-Phe-Ser-S8-2C1F-BztA-Gln-NH2]
 |  |  |  | 1320 |  | 2.23 | 33 (≈ 57.3 µg/mL) |  | CC(=O)N1CCC[C@]12CC=CCCCC1(CCCC=CCCCCCC[C@@](C)(C(=O)N[C@@H](Cc3cccc(F)c3)C(=O)N[C@@H](Cc3csc4ccccc34)C(N)=O)NC(=O)[C@H](CCC(N)=O)NC(=O)[C@H](Cc3ccsc3)NC(=O)[C@H](C)NC(=O)[C@H](C)NC(=O)[C@H](CCC(=O)O)NC(=O)[C@H](CC(=O)O)NC1=O)NC(=O)[C@H](C)NC(=O)[C@H](CC(=O)O)NC2=O (stereo partly drawn) [I-431, Ac-PL3-Asp-Ala-B5-Asp-Glu-Ala-Ala-3Thi-Gln-S8-3FF-BztA-NH2]
 | 7 |  | 10 (≈ 19.1 µg/mL) |  |  | 2.42 |  |  | CC(=O)N1CCC[C@]12CC=CCCCC1(CCCC=CCCCOC(=O)N3CC[C@@](C(=O)N[C@@H](Cc4ccsc4)C(=O)N[C@@H](Cc4csc5ccccc45)C(=O)N[C@@H](Cc4c[nH]cn4)C(N)=O)(C3)NC(=O)[C@H](CC(N)=O)NC(=O)[C@H](Cc3ccccc3)NC(=O)[C@H](C)NC(=O)[C@H](C)NC(=O)[C@H]([C@@H](C)O)NC(=O)[C@H](CC(=O)O)NC1=O)NC(=O)[C@H](CC(C)(C)C)NC(=O)[C@H](CC(=O)O)NC2=O (stereo partly drawn) [I-845, Ac-PL3-Asp-Npg-B5-Asp-Thr-Ala-Ala-Phe-Asn-PyrS2-3Thi-BztA-His-NH2]
 |  | 2.722 | 28 (≈ 48.9 µg/mL) | 46 | 46 |  |  |  | CC[C@H](C)[C@@H]1NC(=O)[C@H](CC(=O)O)NC(=O)[C@]2(CC=CCCCC3(CCCC=CCCCCCC[C@@](C)(C(=O)N[C@@H](Cc4ccsc4)C(=O)N[C@@H](Cc4csc5ccccc45)C(N)=O)NC(=O)[C@H](CC(N)=O)NC(=O)[C@H](Cc4ccccc4)NC(=O)[C@H](C)NC(=O)[C@H](C)NC(=O)[C@H](CCC(=O)O)NC(=O)[C@H](CC(=O)O)NC3=O)NC1=O)CCCN2C(C)=O (stereo partly drawn) [I-721, Ac-PL3-Asp-Ile-B5-Asp-Glu-Ala-Ala-Phe-Asn-S8-3Thi-BztA-NH2]
 |  |  |  | 85 |  | 2.6 | 29 (≈ 56.9 µg/mL) |  | CC(=O)N1CCC[C@]12CC=CCCCC1(CCCC=CCCCCCC[C@@](C)(C(=O)N[C@@H](Cc3ccccc3)C(=O)N[C@@H](Cc3csc4ccccc34)C(=O)N[C@@H](Cc3c[nH]cn3)C(=O)NC(C)(C)C(N)=O)NC(=O)[C@H](CC(N)=O)NC(=O)[C@H](Cc3ccccc3)NC(=O)[C@H](C)NC(=O)[C@H](C)NC(=O)[C@H](CCC(=O)O)NC(=O)[C@H](CC(=O)O)NC1=O)NC(=O)[C@H](CC(C)C)NC(=O)[C@H](CC(=O)O)NC2=O (stereo partly drawn) [I-743, Ac-PL3-Asp-Leu-B5-Asp-Glu-Ala-Ala-Phe-Asn-S8-Phe-BztA-His-Aib-NH2]
 |  |  |  |  |  | 1.74 | 48 (≈ 88.4 µg/mL) | 153 | CC(=O)N1CCC[C@]12CC=CCCCC1(CCCC=CCCCCCC[C@@](C)(C(=O)N[C@@H](Cc3ccccc3C(N)=O)C(=O)N[C@@H](Cc3csc4ccccc34)C(=O)N[C@@H](CCC(N)=O)C(N)=O)NC(=O)[C@H](C(C)C)NC(=O)[C@H](Cc3ccccc3)NC(=O)[C@H](C)NC(=O)[C@H](C)NC(=O)[C@H](CC(=O)O)NC(=O)[C@H](CC(=O)O)NC1=O)NC(=O)[C@H](C)NC(=O)[C@H](CC(=O)O)NC2=O (stereo partly drawn) [I-336, Ac-PL3-Asp-Ala-B5-Asp-Asp-Ala-Ala-Phe-Val-S8-2CBMF-BztA-Gln-NH2]
 |  |  |  | 289 |  | 2.35 | 38 (≈ 70.3 µg/mL) |  | CCCC[C@@H]1NC(=O)[C@H](C)NC(=O)[C@H](C)NC(=O)[C@H](CCC(=O)O)NC(=O)[C@H](CC(=O)O)NC(=O)C2(CCCC=CCCCCCC[C@@](C)(C(=O)N[C@@H](Cc3ccccc3)C(=O)N[C@@H](Cc3csc4ccccc34)C(=O)N[C@@H](CCC(N)=O)C(N)=O)NC(=O)[C@H](CCC(N)=O)NC1=O)CCCC=CC[C@]1(CCCN1C(C)=O)C(=O)N[C@@H](CC(=O)O)C(=O)N[C@@H]([C@@H](C)CC)C(=O)N2 (stereo partly drawn) [I-728, Ac-PL3-Asp-Ile-B5-Asp-Glu-Ala-Ala-nLeu-Gln-S8-Phe-BztA-Gln-NH2]
606 | 606 | 1.417 | 47 (≈ 92.8 µg/mL) |  |  |  |  |  | CC(=O)N1CCC[C@]12CC=CCCCC1(CCCC=CCCCOC(=O)N3CC[C@@](C(=O)N[C@@H](Cc4ccsc4)C(=O)N[C@@H](Cc4csc5ccccc45)C(=O)N[C@@H](CO)C(N)=O)(C3)NC(=O)[C@H](CCO)NC(=O)[C@H](Cc3ccccc3)NC(=O)[C@H](C)NC(=O)[C@H](C)NC(=O)[C@H](CN(CC(=O)O)CC(F)(F)F)NC(=O)[C@H](CC(=O)O)NC1=O)NC(=O)[C@H](CC(C)(C)C)NC(=O)[C@H](CC(=O)O)NC2=O (stereo partly drawn) [I-958, Ac-PL3-Asp-Npg-B5-Asp-TfeGA-Ala-Ala-Phe-Hse-PyrS2-3Thi-BztA-Ser-NH2]
 |  |  |  | 67.5 |  | 2.05 | 20 (≈ 36.9 µg/mL) |  | CC(=O)N1CCC[C@]12CC=CCCCC1(CCCC=CCCCCCC[C@@](C)(C(=O)N[C@@H](Cc3ccccc3F)C(=O)N[C@@H](Cc3csc4ccccc34)C(=O)N[C@@H](CCC(N)=O)C(N)=O)NC(=O)[C@H](CC(N)=O)NC(=O)[C@H](Cc3ccccc3)NC(=O)[C@H](C)NC(=O)[C@H](C)NC(=O)[C@H](CCC(=O)O)NC(=O)[C@H](CC(=O)O)NC1=O)NC(=O)[C@H](C)NC(=O)[C@H](CC(=O)O)NC2=O (stereo partly drawn) [I-434, Ac-PL3-Asp-Ala-B5-Asp-Glu-Ala-Ala-Phe-Asn-S8-2FF-BztA-Gln-NH2]
 |  | 2.837 | 22 (≈ 42.7 µg/mL) | 808 | 808 |  |  |  | CC[C@H](C)[C@@H]1NC(=O)[C@H](CC(=O)O)NC(=O)[C@]2(CC=CCCCC3(CCCC=CCCCCCC[C@@](C)(C(=O)N[C@@H](Cc4ccccc4)C(=O)N[C@@H](Cc4csc5ccccc45)C(=O)N[C@@H](Cc4c[nH]c5ccccc45)C(N)=O)NC(=O)[C@H](CCC(N)=O)NC(=O)[C@H](Cc4ccccc4)NC(=O)[C@H](C)NC(=O)[C@H](C)NC(=O)[C@H](CCC(=O)O)NC(=O)[C@H](CC(=O)O)NC3=O)NC1=O)CCCN2C(C)=O (stereo partly drawn) [I-644, Ac-PL3-Asp-Ile-B5-Asp-Glu-Ala-Ala-Phe-Gln-S8-Phe-BztA-Trp-NH2]
 |  |  |  | 845 |  | 2.24 | 49 (≈ 95.4 µg/mL) |  | CC[C@H](C)[C@@H]1NC(=O)[C@H](CC(=O)O)NC(=O)[C@]2(CC=CCCCC3(CCCC=CCCCCCC[C@@](C)(C(=O)N[C@@H](Cc4ccccc4)C(=O)N[C@@H](Cc4csc5ccccc45)C(=O)N[C@@H](CCC(N)=O)C(N)=O)NC(=O)[C@H](CCC(N)=O)NC(=O)[C@H](Cc4ccccc4)NC(=O)[C@H](C)NC(=O)[C@H](C)NC(=O)[C@H](CCC(=O)O)NC(=O)[C@H](CC(=O)O)NC3=O)NC1=O)CCCN2C(=O)c1cccnc1 (stereo partly drawn) [I-598, Nic-PL3-Asp-Ile-B5-Asp-Glu-Ala-Ala-Phe-Gln-S8-Phe-BztA-Gln-NH2]
